Read-outs that look alike come from different tables or passages of the source.
Experiments:
OX1 = molecular target: T1, OX1 (Homo sapiens, UniProt O43613); experiment: Orexin receptor cell-based functional assay, [Ca2+]i by FLIPR, CHO-OX1 cells
T1 construct: expressed in transfected cells; host or cells: CHO (CHO-OX1, kept under selection antibiotic)
T1 sequence (O43613 1-425): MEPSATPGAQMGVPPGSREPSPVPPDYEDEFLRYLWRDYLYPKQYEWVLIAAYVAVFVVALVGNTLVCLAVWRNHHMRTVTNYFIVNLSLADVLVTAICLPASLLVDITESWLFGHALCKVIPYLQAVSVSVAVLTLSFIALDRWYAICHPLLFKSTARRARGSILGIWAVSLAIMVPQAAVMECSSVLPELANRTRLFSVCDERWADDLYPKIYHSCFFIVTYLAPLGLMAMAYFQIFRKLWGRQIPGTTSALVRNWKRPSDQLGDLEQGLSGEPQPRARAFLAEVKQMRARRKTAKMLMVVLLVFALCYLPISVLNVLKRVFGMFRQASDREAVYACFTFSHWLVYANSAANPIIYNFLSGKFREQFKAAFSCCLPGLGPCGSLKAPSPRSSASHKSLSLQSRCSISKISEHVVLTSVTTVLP
Summary of the method: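 CHO cells expressing human OX1 or OX2 loaded with calcium dye plus 2.5 mM probenecid at 37° C (calcium4, 30 min, or calcium6, 2 h), then exposed to compounds (0.1 nM-10 μM) for 30 min. Intracellular Ca2+ measured on FLIPR; antagonist format.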

CYP3A4 = molecular target: T2, CYP3A4 (Homo sapiens, UniProt P08684); experiment: Cytochrome P450 inhibition assay (midazolam hydroxylation); type: in vitro ADME; conditions: human, human liver microsomes, probe midazolam (hydroxylation to 1′-hydroxymidazolam), 10 μM test compound, midazolam at approximately its Km
T2 construct: pre-incubated with human liver microsomes and NADPH; from tissue; host or cells: human liver microsomes
T2 sequence (P08684 whole entry): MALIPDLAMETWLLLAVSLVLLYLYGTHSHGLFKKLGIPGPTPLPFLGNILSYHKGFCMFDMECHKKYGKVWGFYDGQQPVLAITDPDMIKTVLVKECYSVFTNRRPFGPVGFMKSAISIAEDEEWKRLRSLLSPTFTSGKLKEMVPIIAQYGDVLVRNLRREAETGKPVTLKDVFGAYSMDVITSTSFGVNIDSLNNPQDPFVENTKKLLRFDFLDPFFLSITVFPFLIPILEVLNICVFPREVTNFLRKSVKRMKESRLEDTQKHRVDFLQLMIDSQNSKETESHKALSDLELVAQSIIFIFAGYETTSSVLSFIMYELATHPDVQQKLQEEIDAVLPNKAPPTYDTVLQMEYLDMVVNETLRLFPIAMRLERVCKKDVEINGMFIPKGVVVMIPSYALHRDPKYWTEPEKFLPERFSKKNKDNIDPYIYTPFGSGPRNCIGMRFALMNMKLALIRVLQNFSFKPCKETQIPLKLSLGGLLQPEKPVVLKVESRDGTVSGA
Summary of the method: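 Human liver microsomes; CYP3A4 activity as midazolam 1′-hydroxylation with substrate near Km, with or without 10 μM test compound, read as percent inhibition. For time-dependent inhibition, parallel samples were preincubated 30 min with NADPH before substrate, and percent inhibition compared with non-preincubated samples.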

[1] = CHO-OX1 cells, [Ca2+]i by FLIPR, antagonist dose-range 0.1 nM-10 μM, EC90 of OXA, read-out: OX1

Structure (SMILES)	IC50 (OX1; [1]) [nM]	inhibition at 10 µM (CYP3A4) [%]	IC50 (OX1; Table 6, racemate vs enantiomers, read-out: OX1 IC50) [nM]
Cc1nc(C(=O)N2CCC[C@@H](C)[C@H]2CNc2ccc(C(F)(F)F)cn2)c(-c2ccc(F)cc2)s1 [Example A85, (5-(4-Fluorophenyl)-2-methylthiazol-4-yl)((2S,3R)-3-methyl-2-(((5-(trifluoromethyl)pyridin-2-yl)amino)methyl)piperidin-1-yl)methanone]	2	9	2
Cc1ccc(-c2cnn(C)c2)c(C(=O)N2CCC[C@@H](C)[C@H]2CNc2cccc(C)n2)c1 [Example A87, ((2S,3R)-3-Methyl-2-(((6-methylpyridin-2-yl)amino)methyl)piperidin-1-yl)(5-methyl-2-(1-methyl-1H-pyrazol-4-yl)phenyl)methanone]	220	73	
Cc1ccc(-c2cnn(C)c2)c(C(=O)N2CCC[C@@H](C)[C@H]2CNc2ncccc2C#N)c1 [Example A95, 2-((((2S,3R)-3-Methyl-1-(5-methyl-2-(1-methyl-1H-pyrazol-4-yl)benzoyl)piperidin-2-yl)methyl)amino)nicotinonitrile]	> 1000	88	
COc1cccnc1NC[C@@H]1[C@H](C)CCCN1C(=O)c1cc(C)ccc1-n1nccn1 [Example A98, ((2S,3R)-2-(((3-Methoxypyridin-2-yl)amino)methyl)-3-methylpiperidin-1-yl)(5-methyl-2-(2H-1,2,3-triazol-2-yl)phenyl)methanone]	270	48	
Cc1ccc(-n2nccn2)c(C(=O)N2CCC[C@@H](C)[C@H]2CNc2ncccc2C)c1 [Example A99, ((2S,3R)-3-Methyl-2-(((3-methylpyridin-2-yl)amino)methyl)piperidin-1-yl)(5-methyl-2-(2H-1,2,3-triazol-2-yl)phenyl)methanone]	340	52	
Cc1ccc(-n2cc(C)cn2)c(C(=O)N2CCC[C@@H](C)[C@H]2CNc2ccc(C(F)(F)F)cn2)c1 [Example A107, ((2S,3R)-3-Methyl-2-(((5-(trifluoromethyl)pyridin-2-yl)amino)methyl)piperidin-1-yl)(5-methyl-2-(4-methyl-1H-pyrazol-1-yl)phenyl)methanone]	4	91	
Cc1ccc(-n2ncc(C)n2)c(C(=O)N2CCC[C@@H](C)[C@H]2CNc2nc3cc(Cl)ccc3o2)c1 [Example A116, ((2S,3R)-2-(((5-Chlorobenzo[d]oxazol-2-yl)amino)methyl)-3-methylpiperidin-1-yl)(5-methyl-2-(4-methyl-2H-1,2,3-triazol-2-yl)phenyl)methanone]	4	75	
Cc1ccc(-c2ccccn2)c(C(=O)N2CCC[C@@H](C)[C@H]2CNc2ccc(Cl)cn2)c1 [Example A117, ((2S,3R)-2-(((5-chloropyridin-2-yl)amino)methyl)-3-methylpiperidin-1-yl)(5-methyl-2-(pyridin-2-yl)phenyl)methanone]	37	92	
Cc1ccc(-n2nccn2)c(C(=O)N2CCC[C@@H](C)[C@H]2CNc2ccc(C(F)(F)F)nn2)c1 [Example A119, ((2S,3R)-3-Methyl-2-(((6-(trifluoromethyl)pyridazin-3-yl)amino)methyl)piperidin-1-yl)(5-methyl-2-(2H-1,2,3-triazol-2-yl)phenyl)methanone]	19	59	
Cc1ccc(-n2nccn2)c(C(=O)N2CCC[C@@H](C)[C@H]2CNc2ccc(C#N)cn2)c1 [Example A127, 6-((((2S,3R)-3-Methyl-1-(5-methyl-2-(2H-1,2,3-triazol-2-yl)benzoyl)piperidin-2-yl)methyl)amino)nicotinonitrile]	5	57	

Other lines, results leading:

IC50 (OX1; [1]) [nM]	inhibition at 10 µM (CYP3A4) [%]	IC50 (OX1; Table 6, racemate vs enantiomers, read-out: OX1 IC50) [nM]	Structure (SMILES)
8	68		Cc1ccc(-n2nccn2)c(C(=O)N2CCC[C@@H](C)[C@H]2CNc2ncc(C(F)(F)F)cc2F)c1 [Example A82, ((2S,3R)-2-(((3-Fluoro-5-(trifluoromethyl)pyridin-2-yl)amino)methyl)-3-methylpiperidin-1-yl)(5-methyl-2-(2H-1,2,3-triazol-2-yl)phenyl)methanone]
600	75		Cc1ccc(-n2nccn2)c(C(=O)N2CCC[C@@H](C)[C@H]2CNc2ncccc2C(F)(F)F)c1 [Example A88, ((2S,3R)-3-Methyl-2-(((3-(trifluoromethyl)pyridin-2-yl)amino)methyl)piperidin-1-yl)(5-methyl-2-(2H-1,2,3-triazol-2-yl)phenyl)methanone]
460	96		Cc1ccc(-c2cnn(C)c2)c(C(=O)N2CCC[C@@H](C)[C@H]2CNc2ncccc2C(F)(F)F)c1 [Example A93, ((2S,3R)-3-Methyl-2-(((3-(trifluoromethyl)pyridin-2-yl)amino)methyl)piperidin-1-yl)(5-methyl-2-(1-methyl-1H-pyrazol-4-yl)phenyl)methanone]
1300	85		Cc1ccc(-c2cnn(C)c2)c(C(=O)N2CCC[C@@H](C)[C@H]2CNc2ncccc2C)c1 [Example A100, ((2S,3R)-3-Methyl-2-(((3-methylpyridin-2-yl)amino)methyl)piperidin-1-yl)(5-methyl-2-(1-methyl-1H-pyrazol-4-yl)phenyl)methanone]
16	95		CCn1cc(-c2ccc(C)cc2C(=O)N2CCC[C@@H](C)[C@H]2CNc2ccc(C(F)(F)F)cn2)cn1 [Example A110, (2-(1-Ethyl-1H-pyrazol-4-yl)-5-methylphenyl)((2S,3R)-3-methyl-2-(((5-(trifluoromethyl)pyridin-2-yl)amino)methyl)piperidin-1-yl)methanone]
17	96		Cc1ccc(-c2cnn(C(C)C)c2)c(C(=O)N2CCC[C@@H](C)[C@H]2CNc2ccc(C(F)(F)F)cn2)c1 [Example A111, (2-(1-Isopropyl-1H-pyrazol-4-yl)-5-methylphenyl)((2S,3R)-3-methyl-2-(((5-(trifluoromethyl)pyridin-2-yl)amino)methyl)piperidin-1-yl)methanone]
2	84		Cc1ccc(-n2ncc(C)n2)c(C(=O)N2CCC[C@@H](C)[C@H]2CNc2ccc(C(F)(F)F)cn2)c1 [Example A112, ((2S,3R)-3-Methyl-2-(((5-(trifluoromethyl)pyridin-2-yl)amino)methyl)piperidin-1-yl)(5-methyl-2-(4-methyl-2H-1,2,3-triazol-2-yl)phenyl)methanone]
16	90		Cc1ccc(-n2ccc(C)n2)c(C(=O)N2CCC[C@@H](C)[C@H]2CNc2nc3cc(Cl)ccc3o2)c1 [Example A115, ((2S,3R)-2-(((5-Chlorobenzo[d]oxazol-2-yl)amino)methyl)-3-methylpiperidin-1-yl)(5-methyl-2-(3-methyl-1H-pyrazol-1-yl)phenyl)methanone]
21	90		Cc1ccc(-n2ccc(C)n2)c(C(=O)N2CCC[C@@H](C)[C@H]2CNc2ccc(Cl)cn2)c1 [Example A120, ((2S,3R)-2-(((5-Chloropyridin-2-yl)amino)methyl)-3-methylpiperidin-1-yl)(5-methyl-2-(3-methyl-1H-pyrazol-1-yl)phenyl)methanone]
5	84		Cc1ccc(-n2ncc(C)n2)c(C(=O)N2CCC[C@@H](C)[C@H]2CNc2ccc(Cl)cn2)c1 [Example A121, ((2S,3R)-2-(((5-Chloropyridin-2-yl)amino)methyl)-3-methylpiperidin-1-yl)(5-methyl-2-(4-methyl-2H-1,2,3-triazol-2-yl)phenyl)methanone]
96	72		Cc1ccc(-n2nccn2)c(C(=O)N2CCC[C@@H](C)[C@H]2CNc2ncc3cc(Br)ccc3n2)c1 [Example A122, ((2S,3R)-2-(((6-Bromoquinazolin-2-yl)amino)methyl)-3-methylpiperidin-1-yl)(5-methyl-2-(2H-1,2,3-triazol-2-yl)phenyl)methanone]
410	97		Cc1ccc(-n2nccn2)c(C(=O)N2CCC[C@@H](C)[C@H]2CNc2nc(C(F)(F)F)cs2)c1 [Example A123, ((2S,3R)-3-Methyl-2-(((4-(trifluoromethyl)thiazol-2-yl)amino)methyl)piperidin-1-yl)(5-methyl-2-(2H-1,2,3-triazol-2-yl)phenyl)methanone]
25	75		Cc1ccc(-n2ncc(C)n2)c(C(=O)N2CCC[C@@H](C)[C@H]2CNc2ccc(C(F)(F)F)nn2)c1 [Example A125, ((2S,3R)-3-Methyl-2-(((6-(trifluoromethyl)pyridazin-3-yl)amino)methyl)piperidin-1-yl)(5-methyl-2-(4-methyl-2H-1,2,3-triazol-2-yl)phenyl)methanone]

— patent US9440982B2 (Eolas Therapeutics, Inc., priority 2012, dated 2016)
